“And” between values parts separate entries of the source, which are not always exact repeats. Equal entries are not always repeated. Inconclusive results and toxic doses are left out.
Test system: CD2F1 mice, L1210 leukemia ip, survival T/C
Test: NCI In Vivo Anticancer Drug Screen. Data for tumor model L1210 Leukemia (intraperitoneal) in CD2F1 (CDF1) mice
Conditions: higher = longer survival
Procedure, shortened: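 Ratio T/C, where T is the treated-group value and C the vehicle-dosed control value, from mice implanted with a transplantable tumor.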

[1] = endpoint: mean survival time, dose: 100.0 mg/kg/injection, schedule: Q04DX002 (ip), vehicle: saline with Tween-80
[2] = endpoint: mean survival time, dose: 200.0 mg/kg/injection, schedule: Q04DX002 (ip), vehicle: saline with Tween-80
[3] = endpoint: mean survival time, dose: 400.0 mg/kg/injection, schedule: Q04DX002 (ip), vehicle: saline with Tween-80
[4] = endpoint: mean survival time, dose: 100.0 mg/kg/injection, schedule: Q04DX003 (ip), vehicle: saline with Tween-80
[5] = endpoint: mean survival time, dose: 200.0 mg/kg/injection, schedule: Q04DX003 (ip), vehicle: saline with Tween-80
[6] = endpoint: mean survival time, dose: 400.0 mg/kg/injection, schedule: Q04DX003 (ip), vehicle: saline with Tween-80
[7] = endpoint: mean survival time, dose: 100.0 mg/kg/injection, schedule: Q01DX009 (ip), vehicle: saline with Tween-80
[8] = endpoint: mean survival time, dose: 200.0 mg/kg/injection, schedule: Q01DX009 (ip), vehicle: saline with Tween-80
[9] = endpoint: mean survival time, dose: 400.0 mg/kg/injection, schedule: Q01DX009 (ip), vehicle: saline with Tween-80
[10] = endpoint: mean survival time, dose: 100.0 mg/kg/injection, schedule: Q04DX002 (ip), vehicle: saline
[11] = endpoint: mean survival time, dose: 200.0 mg/kg/injection, schedule: Q04DX002 (ip), vehicle: saline

SMILES: COc1ccc(C(=O)/C(C)=C(/C)NCCC#N)c(OCc2ccccc2)c1OC
- T/C (endpoint: mean survival time, dose: 12.5 mg/kg/injection, schedule: Q01DX009 (ip), vehicle: other): 97 % of control
- T/C (endpoint: mean survival time, dose: 25.0 mg/kg/injection, schedule: Q01DX009 (ip), vehicle: other): 97 % of control
- T/C (endpoint: mean survival time, dose: 50.0 mg/kg/injection, schedule: Q01DX009 (ip), vehicle: other): 97 % of control
- T/C (endpoint: mean survival time, dose: 100.0 mg/kg/injection, schedule: Q01DX009 (ip), vehicle: other): 95 % of control
- T/C (endpoint: mean survival time, dose: 200.0 mg/kg/injection, schedule: Q01DX009 (ip), vehicle: other): 104 % of control

SMILES: COc1cc2c(cc1OC)-c1c3c(cc4c1[C@@H](C2)N(C)CC4)OCO3
- T/C (endpoint: median survival time, dose: 12.5 mg/kg/injection, schedule: Q01DX005 (ip), vehicle: distilled water + Tween-80): 96 % of control
- T/C (endpoint: median survival time, dose: 25.0 mg/kg/injection, schedule: Q01DX005 (ip), vehicle: distilled water + Tween-80): 104 % of control
- T/C (endpoint: median survival time, dose: 50.0 mg/kg/injection, schedule: Q01DX005 (ip), vehicle: distilled water + Tween-80): 87 % of control
- T/C (endpoint: median survival time, dose: 100.0 mg/kg/injection, schedule: Q01DX005 (ip), vehicle: distilled water + Tween-80): 107 % of control

SMILES: CC(C)(CO)COC(=O)NC1=C(N2CC2)C(=O)C(NC(=O)OCC(C)(C)CO)=C(N2CC2)C1=O
- T/C (endpoint: mean survival time, dose: 0.75 mg/kg/injection, schedule: Q01DX009 (ip), vehicle: water): 119 % of control and 121 % of control
- T/C (endpoint: mean survival time, dose: 1.5 mg/kg/injection, schedule: Q01DX009 (ip), vehicle: water): 122 % of control and 106 % of control
- T/C (endpoint: mean survival time, dose: 12.0 mg/kg/injection, schedule: Q01DX009 (ip), vehicle: water): 166 % of control and 169 % of control

SMILES: C/C(=N\NC(N)=S)C1=C(O)C(Cc2ccccc2)NC1=O (configuration not stated)
- T/C [1]: 100 % of control
- T/C [2]: 100 % of control
- T/C [3]: 100 % of control

SMILES: CC1(C)CN(c2ccccc2)NC1=O
- T/C (endpoint: mean survival time, dose: 1.25 mg/kg/injection, schedule: Q01DX009 (ip), vehicle: Klucel (hydroxypropylcellulose) (HPC)): 101 % of control
- T/C (endpoint: mean survival time, dose: 2.5 mg/kg/injection, schedule: Q01DX009 (ip), vehicle: Klucel (hydroxypropylcellulose) (HPC)): 98 % of control
- T/C (endpoint: mean survival time, dose: 5.0 mg/kg/injection, schedule: Q01DX009 (ip), vehicle: Klucel (hydroxypropylcellulose) (HPC)): 101 % of control

SMILES: O=C(O)CC(=O)O.[NH-]CC[NH-].[Pt+2]
- T/C (endpoint: mean survival time, dose: 25.0 mg/kg/injection, schedule: Q01DX009 (ip), vehicle: dextrose): 100 % of control
- T/C (endpoint: median survival time, dose: 40.0 mg/kg/injection, schedule: Q01DX009 (ip), vehicle: saline with Tween-80): 89 % of control
- T/C (endpoint: median survival time, dose: 50.0 mg/kg/injection, schedule: Q01DX001 (ip), vehicle: saline): 111 % of control

SMILES: O=C1C(NCC(O)CO)=C(N2CC2)C(=O)C(NCC(O)CO)=C1N1CC1 (configuration not stated)
- T/C (endpoint: mean survival time, dose: 1.25 mg/kg/injection, schedule: Q01DX009 (oral), vehicle: saline): 91 % of control and 103 % of control
- T/C (endpoint: mean survival time, dose: 2.5 mg/kg/injection, schedule: Q01DX009 (oral), vehicle: saline): 98 % of control
- T/C (endpoint: mean survival time, dose: 10.0 mg/kg/injection, schedule: Q01DX009 (oral), vehicle: saline): 109 % of control
- T/C (endpoint: mean survival time, dose: 20.0 mg/kg/injection, schedule: Q01DX009 (oral), vehicle: saline): 104 % of control and 105 % of control
- T/C (endpoint: median survival time, dose: 0.5 mg/kg/injection, schedule: Q01DX009 (ip), vehicle: saline): 123 % of control
- T/C (endpoint: median survival time, dose: 2.0 mg/kg/injection, schedule: Q01DX009 (ip), vehicle: saline): 163 % of control
- T/C (endpoint: median survival time, dose: 4.0 mg/kg/injection, schedule: Q01DX009 (ip), vehicle: saline): 228 % of control
- T/C (endpoint: median survival time, dose: 8.0 mg/kg/injection, schedule: Q01DX009 (ip), vehicle: saline): 195 % of control

SMILES: COc1ccc(/C=C(/C#N)c2ccccc2)cc1
- T/C [4]: 95 % of control
- T/C [5]: 93 % of control
- T/C [6]: 90 % of control

SMILES: O=C(O)c1cc2ccccc2s1
- T/C (endpoint: mean survival time, dose: 100.0 mg/kg/injection, schedule: Q01DX001 (ip), vehicle: saline): 98 % of control
- T/C (endpoint: mean survival time, dose: 200.0 mg/kg/injection, schedule: Q01DX001 (ip), vehicle: saline): 96 % of control
- T/C (endpoint: mean survival time, dose: 400.0 mg/kg/injection, schedule: Q01DX001 (ip), vehicle: saline): 92 % of control

SMILES: NCCCNCCNCCCN
- T/C (endpoint: mean survival time, dose: 25.0 mg/kg/injection, schedule: Q04DX003 (ip), vehicle: saline): 101 % of control
- T/C (endpoint: mean survival time, dose: 50.0 mg/kg/injection, schedule: Q04DX003 (ip), vehicle: saline): 101 % of control
- T/C (endpoint: mean survival time, dose: 100.0 mg/kg/injection, schedule: Q04DX003 (ip), vehicle: saline): 97 % of control

SMILES: NC(=S)c1ccc(C(N)=S)cc1
- T/C (endpoint: mean survival time, dose: 100.0 mg/kg/injection, schedule: Q01DX001 (ip), vehicle: Klucel (hydroxypropylcellulose) (HPC)): 89 % of control
- T/C [7]: 94 % of control
- T/C [4]: 97 % of control
- T/C (endpoint: mean survival time, dose: 200.0 mg/kg/injection, schedule: Q01DX001 (ip), vehicle: Klucel (hydroxypropylcellulose) (HPC)): 89 % of control
- T/C [8]: 93 % of control
- T/C [5]: 97 % of control
- T/C [9]: 90 % of control
- T/C [6]: 98 % of control

SMILES: O=C(COc1ccc(Cl)cc1)Oc1c(Cl)cc(Cl)cc1Cl
- T/C [1]: 98 % of control
- T/C [2]: 98 % of control
- T/C [3]: 94 % of control

SMILES: FC(F)(F)C(Cl)Br (configuration not stated)
- T/C [7]: 98 % of control
- T/C (endpoint: mean survival time, dose: 100.0 mg/kg/injection, schedule: Q01DX009 (ip), vehicle: saline): 97 % of control
- T/C [8]: 96 % of control
- T/C (endpoint: mean survival time, dose: 200.0 mg/kg/injection, schedule: Q01DX009 (ip), vehicle: saline): 98 % of control
- T/C [9]: 95 % of control
- T/C (endpoint: mean survival time, dose: 400.0 mg/kg/injection, schedule: Q01DX009 (ip), vehicle: saline): 103 % of control

SMILES: CCOC(CNC(C)c1ccc2cc(OC)c(OC)cc2c1)OCC (configuration not stated)
- T/C (endpoint: mean survival time, dose: 12.5 mg/kg/injection, schedule: Q01DX009 (ip), vehicle: Klucel (hydroxypropylcellulose) (HPC)): 97 % of control
- T/C (endpoint: mean survival time, dose: 25.0 mg/kg/injection, schedule: Q01DX009 (ip), vehicle: Klucel (hydroxypropylcellulose) (HPC)): 92 % of control
- T/C (endpoint: mean survival time, dose: 50.0 mg/kg/injection, schedule: Q01DX009 (ip), vehicle: Klucel (hydroxypropylcellulose) (HPC)): 89 % of control
- T/C (endpoint: mean survival time, dose: 100.0 mg/kg/injection, schedule: Q01DX009 (ip), vehicle: Klucel (hydroxypropylcellulose) (HPC)): 95 % of control
- T/C (endpoint: mean survival time, dose: 200.0 mg/kg/injection, schedule: Q01DX009 (ip), vehicle: Klucel (hydroxypropylcellulose) (HPC)): 100 % of control
- T/C (endpoint: mean survival time, dose: 400.0 mg/kg/injection, schedule: Q01DX009 (ip), vehicle: Klucel (hydroxypropylcellulose) (HPC)): 90 % of control

SMILES: COC(=O)CCC1c2[nH]c3ccccc3c2CCN1C (configuration not stated)
- T/C [4]: 93 % of control
- T/C [5]: 102 % of control
- T/C [6]: 102 % of control

SMILES: ClCc1cnc[nH]1
- T/C [10]: 103 % of control
- T/C [11]: 96 % of control

SMILES: COc1cc(OC)c2c(c1Cl)OC(C(C)=O)C2=O (configuration not stated)
- T/C (endpoint: mean survival time, dose: 50.0 mg/kg/injection, schedule: Q01DX009 (ip), vehicle: saline with Tween-80): 97 % of control
- T/C [7]: 102 % of control
- T/C [4]: 93 % of control
- T/C [8]: 96 % of control
- T/C [5]: 102 % of control

SMILES: Cc1cn(C2CCC3(C)C(=CCC4C3CCC3(C)C(C(C)CCCC(C)C)CCC43)C2)c(=O)[nH]c1=O (configuration not stated)
- T/C (endpoint: mean survival time, dose: 37.5 mg/kg/injection, schedule: Q01DX001 (ip), vehicle: Klucel (hydroxypropylcellulose) (HPC)): 88 % of control
- T/C (endpoint: mean survival time, dose: 75.0 mg/kg/injection, schedule: Q01DX001 (ip), vehicle: Klucel (hydroxypropylcellulose) (HPC)): 91 % of control
- T/C (endpoint: mean survival time, dose: 150.0 mg/kg/injection, schedule: Q01DX001 (ip), vehicle: Klucel (hydroxypropylcellulose) (HPC)): 91 % of control
- T/C (endpoint: mean survival time, dose: 300.0 mg/kg/injection, schedule: Q01DX001 (ip), vehicle: Klucel (hydroxypropylcellulose) (HPC)): 91 % of control

SMILES: O=c1cn[nH]c2c(Br)cc(Br)cc12
- T/C [4]: 103 % of control
- T/C [5]: 97 % of control
- T/C [6]: 97 % of control

SMILES: C[N+](C)(CC(=O)Nc1cccc(C(F)(F)F)c1)CC(=O)Nc1cccc(C(F)(F)F)c1
- T/C (endpoint: mean survival time, dose: 25.0 mg/kg/injection, schedule: Q04DX003 (ip), vehicle: saline with Tween-80): 100 % of control
- T/C (endpoint: mean survival time, dose: 50.0 mg/kg/injection, schedule: Q04DX003 (ip), vehicle: saline with Tween-80): 88 % of control

SMILES: CN(C)CC(C)(C)C(=O)c1ccc(Cl)cc1
- T/C [10]: 93 % of control
- T/C [11]: 89 % of control

— PubChem BioAssay AID256 (DTP/NCI, 2004)
